Data from patent US20220370434A1, “METHODS AND COMPOSITIONS FOR TREATING CANCER” (City of Hope, priority 2019, published 2022).

Tests used:
[1] = tested on: PD-L1 and PD-L2 in AML cells (MONOMAC 6); test: Expression of PD-L1 and PD-L2 upon DNMT inhibitor treatment; settings: for expression of PD-L1/2: in AML
Experimental: Expression of PD-L1, PD-L2, and m^6A abundance upon DNMT inhibitor treatment in AML cells was analyzed. MONOMAC 6 cells were treated with PBS, 1 μM, 3 μM, and 5 μM DAC for 48 hours.

NB4 cells = test: Combination with DNMT inhibitors, cell growth; assay type: cell-based; settings: 48 hours, 256 nM formula (IIa)
Experimental: Cell proliferation was measured. […] This experiment was repeated with NB4 cells. […] Synergistic inhibitory effect of FTO inhibitor together with DNMT inhibitor on cell proliferation was observed.
NB4 AML cells were treated with 256 nM compound of formula (IIa), 1000 nM AZA, 100 nM DAC, or their combinations for 48 hours. Effects of compound of formula (IIa), DAC, AZA and combined effects of compound of formula (IIa) with either DAC or AZA on […] AML cell growth was measured (FIG. 9D).

[2] = tested on: primary murine MLL-AF9 (MA9) leukemic cells; test: Colony forming assay; settings: 1 μM
Experimental: MA9 murine leukemic cells were used for colony forming assay.
(§3) Serial colony-forming assay: The assay was employed as described previously with some modification (31). […] The dishes were incubated at 37° C. in a humidified atmosphere of 5% C02 in air for 7 days. Then, colony cells were collected and replated every 7 days with 20,000 cells/dish for 3 passages. Colony numbers were counted and compared for each passage.

HONO-1 AML cells = test: Combination with DNMT inhibitors, cell growth; assay type: cell-based; settings: 256 nM formula (IIa), 48 hours
Experimental: HONO-1 AML cells were treated with 256 nM compound of formula (IIa), 1000 nM AZA, 100 nM DAC, or their combinations for 48 hours. Effects of compound of formula (IIa), DAC, AZA and combined effects of compound of formula (IIa) with either DAC or AZA on HONO-1 AML cell growth was measured (FIG. 9C).

[3] = tested on: murine FLT3ITD/NPM1mut leukemic cells; test: Colony forming assay; settings: 10 nM or 50 nM
Experimental: as §3

AML cells = test: Sensitization of AML cells to other therapeutic agents; settings: for effect with TKI in inhibiting viability: human AML cells
[4] = tested on: primary AML cells from a relapsed AML patient; test: AML PDX mouse model; settings: i.p.
Experimental: (§4) The experiment was repeated with secondary BMT with MA9 leukemic cells. […] 1×10^6 mononuclear cells (MNCs) were isolated from bone marrow of the AML patients and transplanted into NRGS recipient mice. Drug treatment (5 mg/kg/day, every other day treatment, 10 times in total) was started from day 8 after transplantation.
As PDX mouse models, 1×10^6 AML patient derived cells were transplanted into NRGS recipient mice intravenously, and drug treatment was started from 7 days later.

NOMO-1 cells = test: Cell apoptosis assay; assay type: cell-based; settings: 48 hour; 50, 200, 400 nM formula (I); 100, 500, 1000 nM formula (II)
Experimental: Cell cycle and apoptosis assays: Propidium Iodide (PI) DNA staining was chosen to assess the cells located at G0/G1, S, and G2/M stages; while Hoechest 33342 and Pyronin Y was selected to evaluate cells at G0, G1, and S/G2/M phases. For PI staining, 1*10^6 cells were collected, washed once with PBS, and suspended in 1 ml buffer with 0.05 mg/ml PI, 0.1% trisodium citrate, 0.02 mg/ml ribonuclease A, 0.3% NP-40, incubated at 37° C. for 30 minutes, and then applied to flow cytometer directly. As Hochest 33342/Pyronin Y staining, the cells were collected, washed, and re-suspended in 1 ml cell culture medium, stained with 10 μg/ml Hochest 33342 at 37° C. for 45 minutes, and further stained with 0.5 μg/ml Pyronin Y for additional 15 minutes at 37° C. The samples were transferred onto ice before subjected to flow cytometry. Cell apoptosis was validated with PE Annexin V Apoptosis Detection Kit I (559763, BD Biosciences) according to the instructed protocol. Flow cytometry was performed with Fortessa X20 and the related results were analyzed with FlowJo V10 software.

pancreatic cancer = test: Anti-tumor effects in solid tumors; assay type: cell-based
Source text: (§1) Besides in hematopoietic malignancy, FTO also plays oncogenic function in solid tumors, such as glioblastoma (GBM) and lung squamous cell carcinoma (LUSC). To broaden the application of the FTO inhibitors in additional cancers, expression of FTO in various types of cancers was adopted from cBioPortal for Cancer Genomics (http://www.cbioportal.org/).
(§2) Cell culture: For leukemia cells, U937 and MV4-11 were obtained from American Type Culture Collection (ATCC) and cultured in endotoxin-free RPMI1640 supplemented with 10% fetal bovine serum (FBS) (Gemini Bio-Products); K562 (ATCC) was cultured in IMDM with 10% FBS; NOMO-1, ML-2, NB4 were obtained from DSMZ and kept in RPM11640 with 10% FBS; SKNO-1 (DSMZ) was maintained in RPM11640 with 10% FBS and 10 ng/ml GM-CSF; MA9.3ITD (MLL-AF9 plus FLT3-ITD-transformed human CD34^+ cord blood) and MA9.3RAS (MLL-AF9 plus NRasG12D-transformed human CD34^+ cord blood), established by Dr. James Mulloy (30), were maintained in IMDM supplemented with 20% FBS. AML patient-derived primary cells were kept in IDMD supplemented with 20% FBS, 10 ng/ml human cytokines SCF, TPO, FLT3 ligand, IL-3, and IL-6. The glioblastoma cell lines, including 8MGBA, A172 and U87MG were originally maintained by Dr. David Plas from University of Cincinnati, and cultured in RPMI1640 with 10% FBS. Breast tumor cell lines, including ZR-75-1 and MDA-MB-231, were purchased from ATCC, and cultivated in RPMI1640 with 10% FBS. The cell lines from lung cancer, H1993, H2009, and H1437, and pancreatic cancer cells Capan-1 and miAPACA2 were kindly provided by Dr. Ravi Salgia from City of hope, and maintained in RPMI1640 with 10% FBS. All the cells are not among commonly misidentified cells lines, and were tested for Mycoplasma contamination yearly using a PCR Mycoplasma Detection Kit (Applied Biological Materials Inc.). In order to prevent potential contamination, all the mediums were supplemented with Penicillin-Streptomycin (15140122, Life Technologies) and Plasmocin prophylactic (Applied Biological Materials Inc.) according to the manufacture's instruction.

Glioma = test: Anti-tumor effects in solid tumors; assay type: cell-based
Source text: as §1, §2

breast tumors = test: Anti-tumor effects in solid tumors; assay type: cell-based
Source text: as §1, §2

[5] = tested on: AML patient-derived CD34+ cells; test: Cell viability of AML patient-derived CD34+ cells; assay type: cell-based, human; settings: 100 nM formula (I), 200 nM formula (II), 48 hours
MONOMAC 6 cells = test: Response to DNMT inhibitors after pretreatment; assay type: cell-based; settings: pretreated 64 nM 48 hours; 100 nM DAC or 100 nM AZA
[6] = Solubility and uptake after i.p. injection (dissection); assay type: physicochemical, mice; settings: yellow/orange crystals in abdomen
Experimental: Mice from PDX mouse model were treated with compound of formula (I) via i.p. injection and later dissected.

MA9.3ITD AML cells = test: Xenograft AML mouse model with MA9.3ITD cells; settings: cells pretreated 100 nM 48 hours; 2 mg/kg/day every other day i.p., ten treatments
Experimental: For xenograft AML models with NRGS mice, the leukemia AML cells, with high endogenous FTO expression, were pretreated with 100 nM FTO inhibitors for 48 hours before transplantation, and drug treatment was started at day 11 after transplantation.
Xenograft AML mouse models and AML PDX mouse models: NRG-SGM3 mice were used for both ‘human-in-mouse’ xeno-transplanation models and PDX models. […] For xenograft mouse, 0.1×10^6 MA9.3ITD cells were transplanted into NRGS recipient mice intravenously. Drug treatment was started from 10 days after transplanatation.

Experimental for MA9 murine AML cells: as §4
The study was done following secondary BMT with murine MA9 cells, where drug treatment was initiated 7 days after BMT. […] Treatment strategy for DAC: 0.1 mg/kg/day, three times for one week, two weeks in total, i.p. injection.
The Lin^− progenitor cells were retrovirally transduced with MSCV-Neo-MA9 construct through two rounds of ‘spinoculation’ as described previously (31). […] For secondary BMT assays, primary leukemic mouse bone marrow cells (CD45.2+) were collected and sorted by flow cytometry when the mice developed full-blown AML. The cells were injected into sub-lethally irradiated (570 rads) secondary recipient mice with 0.1×10^6 donor cells per mouse via tail vein injection.

| SMILES | expression of PD-L1/2 [1] | sensitization to ATRA, DNR, Ara-C, Aza and DAC (AML cells) | effect with TKI in inhibiting viability (AML cells) | cell apoptosis (NOMO-1 cells) | growth (pancreatic cancer) | growth (Glioma) | growth (breast tumors) | cell viability [5] | other results |
| --- | --- | --- | --- | --- | --- | --- | --- | --- | --- |
| Nc1ncn([C@H]2C[C@H](O)[C@@H](CO)O2)c(=O)n1 [DAC, 5-aza-2′-deoxycytidine] | upregulation of PD-L1/2 |  |  |  |  |  |  |  | expression of PD-L1 and PD-L2 ([1]; MONOMAC 6, 1 μM, 3 μM, 5 μM, 48 hours): induced expression of PD-L1 and PD-L2 in a dose dependent manner |
| O=C(O)c1cc(-c2ccc(-c3ccccc3)cc2)nc2ccccc12 [formula (IIa)] |  |  |  |  |  |  |  |  | effect with DAC on cell growth (NB4 cells; 100 nM DAC): synergistic effects; effect with AZA on cell growth (NB4 cells; 1000 nM AZA): synergistic effects; colony forming activity [2]: decreased colony forming activity; inhibitory effect on colony forming activity compared with formula (II) [2]: slightly stronger inhibitory effect; effect with DAC on cell growth (HONO-1 AML cells; 100 nM DAC): synergistic effects; effect with AZA on cell growth (HONO-1 AML cells; 1000 nM AZA): synergistic effects; inhibitory effect on colony forming activity compared with formula (II) [3]: slightly stronger inhibitory effect; colony forming activity ([3]; b415): dose dependent decreased colony forming activity |
| Cc1c(-c2ccc(-c3ccccc3F)cc2)nc2ccc(F)cc2c1C(=O)O [formula (II)] |  | sensitize AML cells | synergize with TKI | dose-dependent increase in cell apoptosis | growth disadvantage | growth disadvantage | growth disadvantage | significantly decreased cell viability of AML | anti-leukemia effect, survival (Kaplan-Meier) ([4]; 5 mg/kg/day every other day, 10 times, in PBS): strong anti-leukemia effect; anti-leukemia effect, engraftment of AML patient cells into bone marrow ([4]; hCD45 and hCD33 positive cells at day 26): strong anti-leukemia effect; effect with DAC on survival (Kaplan-Meier) (MA9 murine AML cells; 5 mg/kg/day FTO inhibitor, DAC 0.1 mg/kg/day i.p.): synergistic effect; anti-leukemia effects (delaying leukemogenesis, improving survival) (MA9 murine AML cells; 5 mg/kg/day every other day, ten treatments, i.p. or i.v. (micelle)): promising anti-leukemia effects |
| Nc1ncn([C@@H]2O[C@H](CO)[C@@H](O)[C@H]2O)c(=O)n1 [AZA, 5-azacytidine] | upregulation of PD-L1/2 |  |  |  |  |  |  |  |  |
| C(=N\NC1=NCCN1)/c1c2ccccc2c(/C=N/NC2=NCCN2)c2ccccc12 [formula (I)] |  | sensitize AML cells | synergize with TKI | dose-dependent increase in cell apoptosis | growth disadvantage | growth disadvantage | growth disadvantage | significantly decreased cell viability of AML | inhibition of cell proliferation by DAC or AZA after pretreatment (MONOMAC 6 cells): increased inhibition in cell proliferation; solubility and uptake [6]: extreme low solubility and uptake |
| Cc1noc(C)c1-c1cc(Cl)c(Nc2ccccc2C(=O)NO)c(Cl)c1 [FB23-2, reference compound] |  |  |  |  |  |  |  |  | survival (Kaplan-Meier) (MA9.3ITD AML cells): lived significantly longer than the control groups |
